Here are results for 13 compounds from patent publication US11332459B2 (TEIJIN PHARMA LIMITED, priority 2017, dated 2022).

This assay has as its target T1, human TRPC6 (Homo sapiens, UniProt Q9Y210).
T1 construct: expressed in transfected cells
T1 sequence (Q9Y210 1-931): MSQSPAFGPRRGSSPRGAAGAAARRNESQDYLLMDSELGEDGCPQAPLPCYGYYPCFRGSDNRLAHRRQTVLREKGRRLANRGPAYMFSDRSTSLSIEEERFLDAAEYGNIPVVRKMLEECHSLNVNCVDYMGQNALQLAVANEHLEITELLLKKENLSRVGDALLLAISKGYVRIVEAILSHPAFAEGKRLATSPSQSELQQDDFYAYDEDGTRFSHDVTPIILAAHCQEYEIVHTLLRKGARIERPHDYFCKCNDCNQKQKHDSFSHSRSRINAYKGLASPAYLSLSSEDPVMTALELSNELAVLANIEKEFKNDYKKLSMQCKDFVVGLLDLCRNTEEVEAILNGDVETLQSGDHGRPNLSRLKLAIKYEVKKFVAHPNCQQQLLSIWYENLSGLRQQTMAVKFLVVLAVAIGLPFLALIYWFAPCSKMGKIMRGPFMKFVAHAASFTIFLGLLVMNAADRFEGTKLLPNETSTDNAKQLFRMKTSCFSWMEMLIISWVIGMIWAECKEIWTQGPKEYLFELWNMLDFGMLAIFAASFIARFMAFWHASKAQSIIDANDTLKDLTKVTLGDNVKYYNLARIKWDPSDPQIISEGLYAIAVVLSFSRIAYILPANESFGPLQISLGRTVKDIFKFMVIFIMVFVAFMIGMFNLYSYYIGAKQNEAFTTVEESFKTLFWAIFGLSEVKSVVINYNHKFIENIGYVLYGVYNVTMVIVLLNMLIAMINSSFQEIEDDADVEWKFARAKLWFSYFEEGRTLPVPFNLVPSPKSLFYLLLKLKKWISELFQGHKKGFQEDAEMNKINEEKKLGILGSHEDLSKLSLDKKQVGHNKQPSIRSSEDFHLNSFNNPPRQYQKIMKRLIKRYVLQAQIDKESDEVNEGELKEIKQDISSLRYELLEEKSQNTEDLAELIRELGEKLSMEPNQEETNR
The assay can be described thus: TRPC6 calcium flux assay (FLIPR, OAG-stimulated calcium influx). The assay is classed as cell-based. The note with it: HEK293 cells stably transfected with human TRPC6, read-out: hTRPC6 Potency. The method in brief: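 HEK293 cells stably expressing human TRPC6, loaded with calcium dye 90–120 min at RT, then given compound for 25 min before OAG (50 uM final, 0.5% DMSO) in HEPES buffer pH 7.2 with 2 mM CaCl2. Background-subtracted FLIPR peak over 180 s normalized to OAG vs buffer; IC50 from dose plot.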
Take `N#Cc1ccc(Cn2c(N3CC[C@@H](F)[C@H](N)C3)nc3cc(C#N)ccc32)nc1` [Example 54, 2-((3R,4R)-3-amino-4-fluoropiperidin-1-yl)-1-((5-cyanopyridin-2-yl)methyl)-1H-benzo[d]imidazole-5-carbonitrile]: the IC50 came to 5.52 nM. As for `N#Cc1ccc(Cn2c(N3CCC(F)(F)[C@H](N)C3)nc3ccc(C#N)cc32)nc1` [Example 55, (R)-2-(3-amino-4,4-difluoropiperidin-1-yl)-1-((5-cyanopyridin-2-yl)methyl)-1H-benzo[d]imidazole-6-carbonitrile], the figure is 3.97 nM; as for `N#Cc1ccc(Cn2c(N3CCC(F)(F)[C@H](N)C3)nc3cc(C#N)ccc32)nc1` [Example 56, (R)-2-(3-amino-4,4-difluoropiperidin-1-yl)-1-((5-cyanopyridin-2-yl)methyl)-1H-benzo[d]imidazole-5-carbonitrile], 13.5 nM. Next, `N#Cc1ccc(Cn2c(N3CCC[C@H](N)C3)nc3c(Cl)cc(Cl)cc32)nc1` [Example 57, (S)-6-((2-(3-aminopiperidin-1-yl)-4,6-dichloro-1H-benzo[d]imidazol-1-yl)methyl)nicotinonitrile]: 0.784 nM; `N#Cc1ccc(Cn2c(N3CC[C@@H](F)[C@H](N)C3)nc3c(Cl)cc(Cl)cc32)nc1` [Example 58, 6-((2-((3R,4R)-3-amino-4-fluoropiperidin-1-yl)-4,6-dichloro-1H-benzo[d]imidazol-1-yl)methyl)nicotinonitrile]: 0.469 nM; `N#Cc1ccc(Cn2c(N3CC[C@H](F)[C@H](N)C3)nc3c(Cl)cc(Cl)cc32)nc1` [Example 59, 6-((2-((3R,4S)-3-amino-4-fluoropiperidin-1-yl)-4,6-dichloro-1H-benzo[d]imidazol-1-yl)methyl)nicotinonitrile]: 0.256 nM. As for `N#Cc1ccc(Cn2c(N3CCC(F)(F)[C@H](N)C3)nc3c(Cl)cc(Cl)cc32)nc1` [Example 60, (R)-6-((2-(3-amino-4,4-difluoropiperidin-1-yl)-4,6-dichloro-1H-benzo[d]imidazol-1-yl)methyl)nicotinonitrile], the figure is 0.261 nM; as for `N#Cc1ccc(Cn2c(N3CCC[C@H](N)C3)nc3c(F)cc(F)cc32)nc1` [Example 61, (S)-6-((2-(3-aminopiperidin-1-yl)-4,6-difluoro-1H-benzo[d]imidazol-1-yl)methyl)nicotinonitrile], 2.7 nM; as for `N#Cc1ccc(Cn2c(N3CCC[C@H](N)C3)nc3cc(F)cc(F)c32)nc1` [Example 62, (S)-6-((2-(3-aminopiperidin-yl)-5,7-difluoro-1H-benzo[d]imidazol-1-yl)methyl)nicotinonitrile], 60.3 nM.

As to `N#Cc1ccc(Cn2c(N3CC[C@@H](F)[C@H](N)C3)nc3c(F)cc(F)cc32)nc1` [Example 63, 6-((2-((3R,4R)-3-amino-4-fluoropiperidin-1-yl)-4,6-difluoro-1H-benzo[d]imidazol-1-yl)methyl)nicotinonitrile], the IC50 is 0.389 nM. In the case of `N#Cc1ccc(Cn2c(N3CC[C@@H](F)[C@H](N)C3)nc3cc(F)cc(F)c32)nc1` [Example 64, 6-((2-((3R,4R)-3-amino-4-fluoropiperidin-1-yl)-5,7-difluoro-1H-benzo[d]imidazol-1-yl)methyl)nicotinonitrile], the IC50 is 132 nM. As to `N#Cc1ccc(Cn2c(N3CC[C@H](F)[C@H](N)C3)nc3c(F)cc(F)cc32)nc1` [Example 65, 6-((2-((3R,4S)-3-amino-4-fluoropiperidin-1-yl)-4,6-difluoro-1H-benzo[d]imidazol-1-yl)methyl)nicotinonitrile], the IC50 turned out to be 0.598 nM.

Regarding `N#Cc1ccc(Cn2c(N3CC[C@H](F)[C@H](N)C3)nc3cc(F)cc(F)c32)nc1` [Example 66, 6-((2-((3R,4S)-3-amino-4-fluoropiperidin-1-yl)-5,7-difluoro-1H-benzo[d]imidazol-1-yl)methyl)nicotinonitrile], the IC50 stood at 237 nM.
